This is an account of results in patent US11124881B2, “Hydrophilic metal surface treatment agent” (CHEMICAL DENSHI CO., LTD., priority 2019, dated 2021).

Each structure is given as a SMILES string.

This data set in a line: Water-solubility test. In kind it is physicochemical. How it is done:
The hydrophilic metal surface treatment agent (Compound 21) (MW 608.86, 0.32 g) produced in Example 3 was added to ultrapure water (50.09 g), and the mixture was stirred after the water temperature was heated to 60° C.
With respect to even the hydrophilic metal surface treatment agent having an octadecyl group, i.e. n-C18H37, as a long chain hydrocarbon group, an aqueous solution having a concentration of 10.32 mM could be prepared.

Take `CCCCCCCCCCCCCCCCCCSC(=O)CCC(=O)NC(COC(COC(CO)CO)COC(CO)CO)COC(COC(CO)CO)COC(CO)CO` [Compound 21]: the visible undissolved residue entry (0.32 g in ultrapure water 50.09 g, stirred at 60° C., after 3 hours) is on record as “no visible undissolved residue”. In addition, the “concentration of aqueous solution that could be prepared” value (ultrapure water, 60° C., no surfactant or solubilizing agent) was 10320 µM.
